In patent US10597388B2, “Pyridazinone herbicides” (FMC CORPORATION, priority 2014, dated 2020):

What was measured:
Assay in all cases: Test C greenhouse herbicide test, pre- and postemergence
Type in all cases: in vivo
[1] = test system: velvetleaf (Abutilon theophrasti)
Source text: (§1) Seeds of plant species selected from blackgrass (Alopecurus myosuroides), ryegrass, Italian (Italian ryegrass, Lolium multiflorum), wheat (winter wheat, Triticum aestivum), galium (catchweed bedstraw, Galium aparine), corn (Zea mays), large crabgrass, large (large crabgrass, Digitaria sanguinalis), foxtail, giant (giant foxtail, Setaria faberii), johnsongrass (Sorghum halepense), lambsquarters (Chenopodium album), morningglory (Ipomoea coccinea), nutsedge, yellow (yellow nutsedge, Cyperus esculentus), pigweed (Amaranthus retroflexus), ragweed (common ragweed, Ambrosia elatior), soybean (Glycine max), barnyardgrass (Echinochloa crus-galli), oilseed rape (Brassica napus), waterhemp (common waterhemp, Amaranthus rudis), and velvetleaf (Abutilon theophrasti) were planted into a blend of loam soil and sand and treated preemergence with test chemicals formulated in a non-phytotoxic solvent mixture which included a surfactant.
(§2) At the same time, plants selected from these crop and weed species and also chickweed (common chickweed, Stellaria media), kochia (Kochia scoparia), and oat, wild (wild oat, Avena fatua), were planted in pots containing Redi-Earth® planting medium (Scotts Company, 14111 Scottslawn Road, Marysville, Ohio 43041) comprising spaghnum peat moss, vermiculite, wetting agent and starter nutrients and treated with postemergence applications of test chemicals formulated in the same manner. Plants ranged in height from 2 to 18 cm (1- to 4-leaf stage) for postemergence treatments. Treated plants and controls were maintained in a greenhouse for 13 to 15 d, after which time all species were compared to controls and visually evaluated. Plant response ratings, summarized in Table C, are based on a scale of 0 to 100 where 0 is no effect and 100 is complete control. A dash (-) response means no test result.

[2] = test system: galium (catchweed bedstraw, Galium aparine)
Source text: as §1, §2

[3] = test system: blackgrass (Alopecurus myosuroides)
Source text: as §1, §2

[4] = test system: nutsedge, yellow (yellow nutsedge, Cyperus esculentus)
Source text: as §1, §2

[5] = test system: wheat (winter wheat, Triticum aestivum)
Source text: as §1, §2

[6] = test system: pigweed (Amaranthus retroflexus)
Source text: as §1, §2

[7] = test system: soybean (Glycine max)
Source text: as §1, §2

[8] = test system: crabgrass, large (large crabgrass, Digitaria sanguinalis)
Source text: as §1, §2

[9] = test system: ryegrass, Italian (Italian ryegrass, Lolium multiflorum)
Source text: as §1, §2

[10] = test system: foxtail, giant (giant foxtail, Setaria faberii)
Source text: as §1, §2

[11] = test system: lambsquarters (Chenopodium album)
Source text: as §1, §2

[12] = test system: barnyardgrass (Echinochloa crus-galli)
Source text: as §1, §2

[13] = test system: corn (Zea mays)
Source text: as §1, §2

[14] = test system: morningglory (Ipomoea coccinea)
Source text: as §1, §2

[15] = test system: waterhemp (common waterhemp, Amaranthus rudis)
Source text: as §1, §2

[16] = Postemergence, 31 g ai/ha, scale 0 to 100 (0 no effect, 100 complete control)
[17] = Postemergence, 125 g ai/ha, scale 0 to 100, 0 is no effect, 100 is complete control
[18] = Postemergence, 250 g ai/ha, scale 0 to 100, 0 no effect, 100 complete control, 13 to 15 d
[19] = Preemergence, 31 g ai/ha, scale 0 to 100, 0 is no effect, 100 is complete control
[20] = Preemergence, 62 g ai/ha, scale 0 to 100, 0 is no effect, 100 is complete control
[21] = Preemergence, 125 g ai/ha, scale 0 to 100, 0 is no effect, 100 is complete control
[22] = Preemergence, 250 g ai/ha, scale 0 to 100, 0 no effect, 100 complete control
[23] = postemergence, 62 g ai/ha, scale 0 to 100, 0 no effect, 100 complete control

Cc1nn(C)c(=O)c(-c2c(C)sc3ccc(C(F)(F)F)cc23)c1O [Compound 121]
45: Plant response rating, Blackgrass [3, 20] | Plant response rating, Blackgrass [3, 21] | Plant response rating, Nutsedge, Yellow [4, 16]
0: Plant response rating, Blackgrass [3, 16] | Plant response rating, Wheat [5, 18] | Plant response rating, Wheat [5, 19] | Plant response rating, Wheat [5, 20] | Plant response rating, Soybean [7, 16] | Plant response rating, Soybean [7, 17] | Plant response rating, Soybean [7, 18] | Plant response rating, Soybean [7, 19] | Plant response rating, Soybean [7, 20] | Plant response rating, Soybean [7, 21] | Soybean plant response rating [7, 22] | Plant response rating, Crabgrass, Large [8, 19] | Plant response rating, Corn [13, 16] | Plant response rating, Corn [13, 19] | Plant response rating, Corn [13, 20] | Plant response rating, Corn [13, 21]
30: Plant response rating, Barnyardgrass [12, 18]
40: Plant response rating, Crabgrass, Large [8, 18]
70: Plant response rating, Foxtail, Giant [10, 17] | Plant response rating, Waterhemp [15, 18] | Plant response rating, Waterhemp [15, 19]
95: Velvetleaf plant response rating [1, 22] | Plant response rating, Galium [2, 17] | Plant response rating, Galium [2, 18] | Plant response rating, Ryegrass, Italian [9, 21] | Foxtail, Giant plant response rating [10, 22] | Plant response rating, Waterhemp [15, 20]
100: Galium plant response rating [2, 22] | Plant response rating, Pigweed [6, 19] | Pigweed plant response rating [6, 22] | Ryegrass, Italian plant response rating [9, 22] | Plant response rating, Lambsquarters [11, 18] | Lambsquarters plant response rating [11, 22] | Plant response rating, Morningglory [14, 17] | Waterhemp plant response rating [15, 22]
15: Plant response rating, Blackgrass [3, 17] | Blackgrass plant response rating [3, 23] | Wheat plant response rating [5, 22]
90: Plant response rating, Galium [2, 16] | Plant response rating, Galium [2, 19] | Plant response rating, Galium [2, 20] | Plant response rating, Pigweed [6, 17] | Plant response rating, Pigweed [6, 21] | Plant response rating, Ryegrass, Italian [9, 17] | Plant response rating, Ryegrass, Italian [9, 18] | Plant response rating, Ryegrass, Italian [9, 20] | Plant response rating, Foxtail, Giant [10, 21] | Plant response rating, Lambsquarters [11, 16] | Morningglory plant response rating [14, 22]
98: Plant response rating, Galium [2, 21] | Plant response rating, Pigweed [6, 18] | Plant response rating, Pigweed [6, 20] | Plant response rating, Lambsquarters [11, 17] | Plant response rating, Lambsquarters [11, 21] | Plant response rating, Morningglory [14, 16] | Plant response rating, Morningglory [14, 18]
80: Plant response rating, Velvetleaf [1, 18] | Plant response rating, Lambsquarters [11, 20]
35: Crabgrass, Large plant response rating [8, 22]
85: Plant response rating, Velvetleaf [1, 21] | Plant response rating, Nutsedge, Yellow [4, 17] | Plant response rating, Ryegrass, Italian [9, 16] | Plant response rating, Foxtail, Giant [10, 18] | Plant response rating, Morningglory [14, 21] | Plant response rating, Waterhemp [15, 21]
25: Plant response rating, Nutsedge, Yellow [4, 20] | Plant response rating, Wheat [5, 17] | Plant response rating, Barnyardgrass [12, 17] | Plant response rating, Morningglory [14, 19]
55: Plant response rating, Foxtail, Giant [10, 20] | Plant response rating, Barnyardgrass [12, 21] | Plant response rating, Morningglory [14, 20]
50: Plant response rating, Blackgrass [3, 18] | Nutsedge, Yellow plant response rating [4, 22]
20: Plant response rating, Nutsedge, Yellow [4, 21] | Plant response rating, Crabgrass, Large [8, 17] | Plant response rating, Foxtail, Giant [10, 16] | Plant response rating, Foxtail, Giant [10, 19] | Plant response rating, Barnyardgrass [12, 16] | Barnyardgrass plant response rating [12, 23]
10: Plant response rating, Velvetleaf [1, 16] | Plant response rating, Blackgrass [3, 19] | Plant response rating, Nutsedge, Yellow [4, 19] | Plant response rating, Wheat [5, 21] | Plant response rating, Crabgrass, Large [8, 16] | Plant response rating, Crabgrass, Large [8, 20] | Plant response rating, Crabgrass, Large [8, 21] | Plant response rating, Barnyardgrass [12, 20]
5: Plant response rating, Wheat [5, 16] | Crabgrass, Large plant response rating [8, 23] | Plant response rating, Barnyardgrass [12, 19] | Plant response rating, Corn [13, 17] | Plant response rating, Corn [13, 18] | Corn plant response rating [13, 22] | Corn plant response rating [13, 23]
75: Plant response rating, Velvetleaf [1, 17] | Plant response rating, Velvetleaf [1, 20] | Plant response rating, Nutsedge, Yellow [4, 18] | Plant response rating, Pigweed [6, 16] | Plant response rating, Ryegrass, Italian [9, 19] | Plant response rating, Waterhemp [15, 17]
60: Plant response rating, Velvetleaf [1, 19] | Blackgrass plant response rating [3, 22] | Plant response rating, Lambsquarters [11, 19] | Barnyardgrass plant response rating [12, 22] | Plant response rating, Waterhemp [15, 16]
